According to patent US9932637B2, “Genetic polymorphisms associated with cardiovascular disorders and drug response, methods of detection and uses thereof” (CELERA CORPORATION, priority 2003, dated 2018):

Tested on: patients with prior myocardial infarction (CARE study)
Test: CARE: association of SNPs with pravastatin treatment in cardiovascular events prevention (logistic regression, odds ratio pravastatin vs placebo by genotype; Table 8)
Format: in vivo, human
Conditions: for MI (Fatal/Nonfatal), n/total (%) / Nonfatal MI (Probable/Definite), n/total (%) / Nonfatal MI (def & prob), n/total (%) / Fatal/Nonfatal MI (def & prob), n/total (%) / Hosp. for Unstable Angina, n/total (%): MJD hCV16189421, All Patients; for MI (Fatal/Nonfatal), n/total (%) / Nonfatal MI (Probable/Definite), n/total (%) / Nonfatal MI (def & prob), n/total (%) / Fatal/Nonfatal MI (def & prob), n/total (%) / Hosp. for Unstable Angina, n/total (%) / Percutaneous Transluminal Coronary Angioplas, n/total (%) / Fatal/Nonfatal Cerebrovascular Disease, n/total (%): Prava arm; for Percutaneous Transluminal Coronary Angioplas, n/total (%): MMP27 hCV7492601, All Patients; for Total Coronary Heart Disease Events, n/total (%) / Fatal/Non-fatal Atherosclerotic CV Disease, n/total (%) / Hosp. for Cardiovascular Disease, n/total (%) / Total Cardiovascular Disease Events, n/total (%) / Prava vs. Placebo Odds Ratio, 0 Rare Alleles / Prava vs. Placebo Odds Ratio, 1 Rare Alleles / Prava vs. Placebo Odds Ratio, 2 Rare Alleles / Fatal Atherosclerotic Cardiovascular Disease, n/total (%) / Cardiovascular Mortality, n/total (%): All Patients; for Total Coronary Heart Disease Events, n/total (%) / Fatal/Non-fatal Atherosclerotic CV Disease, n/total (%) / Hosp. for Cardiovascular Disease, n/total (%) / Total Cardiovascular Disease Events, n/total (%) / Fatal Atherosclerotic Cardiovascular Disease, n/total (%) / Cardiovascular Mortality, n/total (%): Prava; for Fatal/Nonfatal Cerebrovascular Disease, n/total (%): NID2 hCV15876071, All Patients
Source text: In order to identify genetic markers associated with acute coronary events (e.g. MI, stroke, unstable angina, congestive heart failure, etc.) or response to statin treatment for the prevention of coronary events, samples from the Cholesterol and Recurrent Events (CARE) study (a randomized multicentral double-blinded trial on secondary prevention of acute coronary events with pravastatin) (Sacks et al., 1991, Am. J. Cardiol. 68: 1436-1446) were genotyped. A well-documented myocardial infarction (MI) was one of the enrollment criteria for entry into the CARE study. Patients were enrolled in the CARE trial from 80 participating study centers. […] Patients were randomized to receive either 40 mg of pravastatin once daily or a matching placebo. The primary endpoint of the trial was death from coronary heart disease and the median duration of follow-up was 5.0 years (range, 4.0 to 6.2 years). […] Secondary endpoints of other related cardiovascular or metabolic disease events, and changes in clinical variables were also recorded in pravastatin-treated and placebo groups. All individuals included in the study had signed a written informed consent form and the study protocol was approved by the respective Institutional Review Boards (IRBs).
For genotyping SNPs in CARE patient samples, DNA was extracted from blood samples using conventional DNA extraction methods such as the QIA-amp kit from Qiagen. Genotypes were obtained on an ABI PRISM® 7900HT Sequence Detection PCR system (Applied Biosystems, Foster City, Calif.) by kinetic allele-specific PCR, similar to the method described by Germer et al. (Germer S., Holland M. J., Higuchi R. 2000, Genome Res. 10: 258-266).
Statistical analysis for association of SNPs with pravastatin treatment in cardiovascular events prevention (Table 8) was carried out using an overall logistic regression model that included an intercept, a parameter for the effect of a genotype containing two rare alleles versus a genotype containing no rare alleles, a parameter for the effect of a genotype containing one rare allele versus a genotype containing no rare alleles, a parameter for the effect of use of pravastatin versus the use of placebo, and parameters for the interaction effects between SNP genotypes and pravastatin use. The test of the overall model is a chi-square test with two degrees of freedom for analyses containing all three genotypes, and one degree of freedom for analyses containing two genotypes.
Effect sizes were estimated through odds ratios (pravastatin group versus placebo) for carriers of each genotype (groups of 0, 1, and 2 minor allele carriers). The effect was considered to be significant if p-value for testing whether any of the interactions between SNP genotypes and pravastatin use were <0.05. […] Odds ratios less than one indicate that the specific SNP allele has a protective effect and odds ratios greater than one indicate that the specific SNP allele has an adverse effect.

[1] = MTRR hCV7580070, 2 Rare Alleles, n/total 2/22
[2] = MTRR hCV7580070, 2 Rare Alleles, n/total 5/22
[3] = MTRR hCV7580070, Fatal/Non-fatal Atherosclerotic CV Disease
[4] = MTRR hCV7580070, Hosp. for Cardiovascular Disease
[5] = MTRR hCV7580070, Total Cardiovascular Disease Events
[6] = MTRR hCV7580070, Total Coronary Heart Disease Events
[7] = NPC1 hCV7490135, 1 Rare Allele, n/total 26/742
[8] = NPC1 hCV7490135, 2 Rare Alleles, n/total 3/324

## CC[C@H](C)C(=O)O[C@H]1C[C@H](O)C=C2C=C[C@H](C)[C@H](CC[C@@H](O)C[C@@H](O)CC(=O)O)[C@H]21 [pravastatin]
0 Rare Alleles
  MI (Fatal/Nonfatal), n/total (%): (8.6%)
  Nonfatal MI (Probable/Definite), n/total (%): (8.0%)
  Nonfatal MI (def & prob), n/total (%): (7.5%)
  Percutaneous Transluminal Coronary Angioplas, n/total (%): (9.7%)
  Fatal/Nonfatal Cerebrovascular Disease, n/total (%): (5.7%)
1 Rare Allele
  Fatal/Nonfatal MI (def & prob), n/total (%): (11.9%)
  Hosp. for Unstable Angina, n/total (%): (17.6%)
  MI (Fatal/Nonfatal), n/total (%): (12.1%)
  Nonfatal MI (Probable/Definite), n/total (%): (11.3%)
  Nonfatal MI (def & prob), n/total (%): (11.2%)
  Percutaneous Transluminal Coronary Angioplas, n/total (%): (9.1%)
  Fatal/Nonfatal Cerebrovascular Disease, n/total (%): (4.1%)
2 Rare Alleles
  Fatal/Nonfatal MI (def & prob), n/total (%): (11.2%)
  Hosp. for Unstable Angina, n/total (%): (10.1%)
  MI (Fatal/Nonfatal), n/total (%): (11.2%)
  Nonfatal MI (Probable/Definite), n/total (%): (11.2%)
  Nonfatal MI (def & prob), n/total (%): (11.2%)
  Percutaneous Transluminal Coronary Angioplas, n/total (%): (8.2%)
  Fatal/Nonfatal Cerebrovascular Disease, n/total (%): (1.7%)
MTRR hCV7580070, 0 Rare Alleles, n/total 338/1201
  Total Coronary Heart Disease Events, n/total (%): (28.1%)
MTRR hCV7580070, 0 Rare Alleles, n/total 390/1201
  Fatal/Non-fatal Atherosclerotic CV Disease, n/total (%): (32.5%)
MTRR hCV7580070, 0 Rare Alleles, n/total 466/1201
  Hosp. for Cardiovascular Disease, n/total (%): (38.8%)
MTRR hCV7580070, 0 Rare Alleles, n/total 480/1201
  Total Cardiovascular Disease Events, n/total (%): (40.0%)
MTRR hCV7580070, 1 Rare Allele, n/total 98/284
  Total Coronary Heart Disease Events, n/total (%): (34.5%)
MTRR hCV7580070, 1 Rare Allele, n/total 110/284
  Fatal/Non-fatal Atherosclerotic CV Disease, n/total (%): (38.7%)
MTRR hCV7580070, 1 Rare Allele, n/total 135/284
  Hosp. for Cardiovascular Disease, n/total (%): (47.5%)
MTRR hCV7580070, 1 Rare Allele, n/total 137/284
  Total Cardiovascular Disease Events, n/total (%): (48.2%)
[1]
  Fatal/Non-fatal Atherosclerotic CV Disease, n/total (%): (9.1%)
  Total Coronary Heart Disease Events, n/total (%): (9.1%)
[2]
  Hosp. for Cardiovascular Disease, n/total (%): (22.7%)
  Total Cardiovascular Disease Events, n/total (%): (22.7%)
[3]
  Prava vs. Placebo Odds Ratio, 0 Rare Alleles: 0.74
  Prava vs. Placebo Odds Ratio, 1 Rare Alleles: 0.95
  Prava vs. Placebo Odds Ratio, 2 Rare Alleles: 0.09
[4]
  Prava vs. Placebo Odds Ratio, 0 Rare Alleles: 0.71
  Prava vs. Placebo Odds Ratio, 1 Rare Alleles: 1.04
  Prava vs. Placebo Odds Ratio, 2 Rare Alleles: 0.22
[5]
  Prava vs. Placebo Odds Ratio, 0 Rare Alleles: 0.71
  Prava vs. Placebo Odds Ratio, 1 Rare Alleles: 1.01
  Prava vs. Placebo Odds Ratio, 2 Rare Alleles: 0.22
[6]
  Prava vs. Placebo Odds Ratio, 0 Rare Alleles: 0.73
  Prava vs. Placebo Odds Ratio, 1 Rare Alleles: 1.00
  Prava vs. Placebo Odds Ratio, 2 Rare Alleles: 0.12
NPC1 hCV7490135, 0 Rare Alleles, n/total 25/437
  Fatal Atherosclerotic Cardiovascular Disease, n/total (%): (5.7%)
NPC1 hCV7490135, 0 Rare Alleles, n/total 26/437
  Cardiovascular Mortality, n/total (%): (5.9%)
NPC1 hCV7490135, 0 Rare Alleles, n/total 146/437
  Total Coronary Heart Disease Events, n/total (%): (33.4%)
NPC1 hCV7490135, 0 Rare Alleles, n/total 165/437
  Fatal/Non-fatal Atherosclerotic CV Disease, n/total (%): (37.8%)
NPC1 hCV7490135, 0 Rare Alleles, n/total 194/437
  Hosp. for Cardiovascular Disease, n/total (%): (44.4%)
NPC1 hCV7490135, 0 Rare Alleles, n/total 202/437
  Total Cardiovascular Disease Events, n/total (%): (46.2%)
[7]
  Cardiovascular Mortality, n/total (%): (3.5%)
  Fatal Atherosclerotic Cardiovascular Disease, n/total (%): (3.5%)
NPC1 hCV7490135, 1 Rare Allele, n/total 213/742
  Total Coronary Heart Disease Events, n/total (%): (28.7%)
NPC1 hCV7490135, 1 Rare Allele, n/total 246/742
  Fatal/Non-fatal Atherosclerotic CV Disease, n/total (%): (33.2%)
NPC1 hCV7490135, 1 Rare Allele, n/total 295/742
  Hosp. for Cardiovascular Disease, n/total (%): (39.8%)
NPC1 hCV7490135, 1 Rare Allele, n/total 303/742
  Total Cardiovascular Disease Events, n/total (%): (40.8%)
[8]
  Cardiovascular Mortality, n/total (%): (0.9%)
  Fatal Atherosclerotic Cardiovascular Disease, n/total (%): (0.9%)
NPC1 hCV7490135, 2 Rare Alleles, n/total 81/324
  Total Coronary Heart Disease Events, n/total (%): (25.0%)
